Reference: ChEMBL document CHEMBL4507284, “Data for DCP probe BI-1230” (2021)

Columns and labels:
[1] = target: Serine/threonine-protein kinase DCLK1 (Homo sapiens) (UniProt O15075); details: Compound concentration 1000.0 nM
[2] = target: Alpha-2C adrenergic receptor (Homo sapiens) (UniProt P18825); details: Compound concentration 10.0 uM
[3] = target: Serine/threonine-protein kinase NLK (Homo sapiens) (UniProt Q9UBE8); details: Compound concentration 1000.0 nM
[4] = target: MAP kinase-interacting serine/threonine-protein kinase 1 (Homo sapiens) (UniProt Q9BUB5); details: Compound concentration 1000.0 nM
[5] = target: Myosin-IIIb (Homo sapiens) (UniProt Q8WXR4); details: Compound concentration 1000.0 nM
[6] = target: Homeodomain-interacting protein kinase 3 (Homo sapiens) (UniProt Q9H422); details: Compound concentration 1000.0 nM
[7] = target: Calcium/calmodulin-dependent protein kinase type 1B (Homo sapiens) (UniProt Q6P2M8); details: Compound concentration 1000.0 nM
[8] = target: Mitogen-activated protein kinase kinase kinase kinase 1 (Homo sapiens) (UniProt Q92918); details: Compound concentration 1000.0 nM
Sequence of Mitogen-activated protein kinase kinase kinase kinase 1 (Homo sapiens) (Q92918 whole entry, looked up): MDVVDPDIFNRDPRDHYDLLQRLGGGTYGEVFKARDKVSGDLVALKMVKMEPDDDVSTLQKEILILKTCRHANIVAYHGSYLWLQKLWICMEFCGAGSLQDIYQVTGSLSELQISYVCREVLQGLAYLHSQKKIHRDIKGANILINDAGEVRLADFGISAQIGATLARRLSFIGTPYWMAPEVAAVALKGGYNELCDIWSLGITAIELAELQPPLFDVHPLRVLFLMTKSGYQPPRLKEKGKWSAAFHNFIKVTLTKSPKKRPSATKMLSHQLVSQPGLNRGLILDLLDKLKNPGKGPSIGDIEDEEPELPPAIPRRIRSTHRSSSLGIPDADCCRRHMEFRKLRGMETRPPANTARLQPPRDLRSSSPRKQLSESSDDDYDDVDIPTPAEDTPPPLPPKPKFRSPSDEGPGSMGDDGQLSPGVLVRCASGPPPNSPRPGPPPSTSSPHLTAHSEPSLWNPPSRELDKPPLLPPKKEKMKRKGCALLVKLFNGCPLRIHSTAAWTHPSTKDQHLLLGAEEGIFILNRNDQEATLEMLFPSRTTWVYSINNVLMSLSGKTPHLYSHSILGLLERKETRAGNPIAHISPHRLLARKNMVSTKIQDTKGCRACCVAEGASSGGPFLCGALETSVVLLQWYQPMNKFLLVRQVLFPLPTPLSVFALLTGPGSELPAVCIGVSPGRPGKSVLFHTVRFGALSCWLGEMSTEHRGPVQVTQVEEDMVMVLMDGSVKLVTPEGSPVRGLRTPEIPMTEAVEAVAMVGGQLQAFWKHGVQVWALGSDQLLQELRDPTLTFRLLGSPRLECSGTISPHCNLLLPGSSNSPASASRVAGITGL

[9] = target: Tyrosine-protein kinase receptor Tie-1 (Homo sapiens) (UniProt P35590); details: Compound concentration 1000.0 nM
Sequence of Tyrosine-protein kinase receptor Tie-1 (Homo sapiens) (P35590 whole entry): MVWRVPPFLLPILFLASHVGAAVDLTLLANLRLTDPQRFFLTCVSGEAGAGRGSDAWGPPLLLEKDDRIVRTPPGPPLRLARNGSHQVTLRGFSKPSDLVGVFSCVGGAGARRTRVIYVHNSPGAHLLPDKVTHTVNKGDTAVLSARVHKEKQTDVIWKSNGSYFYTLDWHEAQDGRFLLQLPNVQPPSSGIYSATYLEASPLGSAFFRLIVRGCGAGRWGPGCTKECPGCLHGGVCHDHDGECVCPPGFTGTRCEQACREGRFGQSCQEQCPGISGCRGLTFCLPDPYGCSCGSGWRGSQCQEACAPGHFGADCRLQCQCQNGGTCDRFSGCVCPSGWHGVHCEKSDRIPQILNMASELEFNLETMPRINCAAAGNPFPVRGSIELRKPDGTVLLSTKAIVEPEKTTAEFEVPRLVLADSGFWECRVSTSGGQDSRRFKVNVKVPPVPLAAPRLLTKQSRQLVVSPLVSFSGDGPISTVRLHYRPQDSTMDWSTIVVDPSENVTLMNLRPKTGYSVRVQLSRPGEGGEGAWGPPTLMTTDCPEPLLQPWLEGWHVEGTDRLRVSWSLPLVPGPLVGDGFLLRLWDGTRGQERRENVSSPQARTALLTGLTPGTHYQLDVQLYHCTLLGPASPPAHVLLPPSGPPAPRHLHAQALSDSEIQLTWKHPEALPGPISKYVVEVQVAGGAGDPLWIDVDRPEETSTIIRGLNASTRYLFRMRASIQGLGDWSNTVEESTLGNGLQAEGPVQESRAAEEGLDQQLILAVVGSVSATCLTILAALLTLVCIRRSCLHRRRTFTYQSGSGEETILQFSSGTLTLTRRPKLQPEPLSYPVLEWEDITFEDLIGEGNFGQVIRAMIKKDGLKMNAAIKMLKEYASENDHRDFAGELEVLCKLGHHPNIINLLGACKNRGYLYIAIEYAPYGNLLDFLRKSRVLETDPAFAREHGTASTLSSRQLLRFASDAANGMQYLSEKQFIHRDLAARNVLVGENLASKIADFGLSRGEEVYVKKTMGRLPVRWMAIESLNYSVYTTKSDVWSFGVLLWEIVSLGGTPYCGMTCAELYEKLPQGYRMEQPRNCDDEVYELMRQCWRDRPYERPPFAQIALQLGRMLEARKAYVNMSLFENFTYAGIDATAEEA

[10] = target: Serine/threonine-protein kinase PLK2 (Homo sapiens) (UniProt Q9NYY3); details: Compound concentration 1000.0 nM
[11] = target: Fibroblast growth factor receptor 2 (Homo sapiens) (UniProt P21802); details: Compound concentration 1000.0 nM
[12] = target: cAMP-dependent protein kinase catalytic subunit beta (Homo sapiens) (UniProt P22694); details: Compound concentration 1000.0 nM
[13] = target: Casein kinase I isoform epsilon (Homo sapiens) (UniProt P49674); details: Compound concentration 1000.0 nM
[14] = tested on: Serine/threonine-protein kinase B-raf (Homo sapiens), P15056 [V600E]; details: Compound concentration 1000.0 nM
[15] = tested on: Tyrosine-protein kinase ABL1 (Homo sapiens), P00519 [H396P]; details: Compound concentration 1000.0 nM
[16] = target: Ephrin type-A receptor 1 (Homo sapiens) (UniProt P21709); details: Compound concentration 1000.0 nM
[17] = target: Mitogen-activated protein kinase kinase kinase 5 (Homo sapiens) (UniProt Q99683); details: Compound concentration 1000.0 nM
[18] = target: Serine/threonine-protein kinase TAO1 (Homo sapiens) (UniProt Q7L7X3); details: Compound concentration 1000.0 nM
Sequence of Serine/threonine-protein kinase TAO1 (Homo sapiens) (Q7L7X3 whole entry): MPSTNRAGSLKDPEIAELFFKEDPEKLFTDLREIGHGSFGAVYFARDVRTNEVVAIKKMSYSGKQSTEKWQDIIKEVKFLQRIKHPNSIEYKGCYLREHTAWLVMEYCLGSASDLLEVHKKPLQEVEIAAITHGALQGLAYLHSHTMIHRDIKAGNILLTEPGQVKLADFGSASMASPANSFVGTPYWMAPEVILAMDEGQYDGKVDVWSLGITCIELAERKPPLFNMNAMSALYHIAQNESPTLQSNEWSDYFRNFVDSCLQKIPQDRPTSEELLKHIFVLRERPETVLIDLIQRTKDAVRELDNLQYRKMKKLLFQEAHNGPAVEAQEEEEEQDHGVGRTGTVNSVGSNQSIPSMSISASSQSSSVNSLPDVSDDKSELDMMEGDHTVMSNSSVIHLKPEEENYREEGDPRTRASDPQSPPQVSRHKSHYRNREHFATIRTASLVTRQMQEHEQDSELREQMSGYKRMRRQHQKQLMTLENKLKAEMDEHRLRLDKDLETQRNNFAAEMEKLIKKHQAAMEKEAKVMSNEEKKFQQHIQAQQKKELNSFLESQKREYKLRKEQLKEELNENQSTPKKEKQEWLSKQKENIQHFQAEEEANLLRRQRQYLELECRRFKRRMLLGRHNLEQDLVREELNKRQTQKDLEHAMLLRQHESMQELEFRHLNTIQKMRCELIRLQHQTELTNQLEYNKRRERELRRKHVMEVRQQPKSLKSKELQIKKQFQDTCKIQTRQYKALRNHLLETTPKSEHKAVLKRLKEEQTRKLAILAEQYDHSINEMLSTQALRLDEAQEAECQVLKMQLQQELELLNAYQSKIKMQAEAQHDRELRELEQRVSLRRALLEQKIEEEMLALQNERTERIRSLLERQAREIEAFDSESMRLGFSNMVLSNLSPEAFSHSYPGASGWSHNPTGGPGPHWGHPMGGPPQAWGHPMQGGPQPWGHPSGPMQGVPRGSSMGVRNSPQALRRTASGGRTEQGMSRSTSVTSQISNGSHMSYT

[19] = target: Serine/threonine-protein kinase WNK2 (Homo sapiens) (UniProt Q9Y3S1); details: Compound concentration 1000.0 nM
[20] = target: Rhodopsin kinase GRK7 (Homo sapiens) (UniProt Q8WTQ7); details: Compound concentration 1000.0 nM
[21] = target: Tyrosine-protein kinase BTK (Homo sapiens) (UniProt Q06187); details: Compound concentration 1000.0 nM
[22] = target: Serine/threonine-protein kinase TNNI3K (Homo sapiens) (UniProt Q59H18); details: Compound concentration 1000.0 nM
[23] = target: Serine/threonine-protein kinase 24 (Homo sapiens) (UniProt Q9Y6E0); details: Compound concentration 1000.0 nM
[24] = target: Serine/threonine-protein kinase 32A (Homo sapiens) (UniProt Q8WU08); details: Compound concentration 1000.0 nM
[25] = target: Tyrosine-protein kinase JAK3 (Homo sapiens) (UniProt P52333); details: Compound concentration 1000.0 nM
[26] = target: Receptor-type tyrosine-protein kinase FLT3 (Homo sapiens) (UniProt P36888); details: Compound concentration 1000.0 nM
[27] = target: Insulin-like growth factor 1 receptor (Homo sapiens) (UniProt P08069); details: Compound concentration 1000.0 nM
[28] = target: Tyrosine-protein kinase FRK (Homo sapiens) (UniProt P42685); details: Compound concentration 1000.0 nM
[29] = tested on: Receptor-type tyrosine-protein kinase FLT3 (Homo sapiens), P36888 [N841I]; details: Compound concentration 1000.0 nM
[30] = target: Mitogen-activated protein kinase 4 (Homo sapiens) (UniProt P31152); details: Compound concentration 1000.0 nM
[31] = target: Serine/threonine-protein kinase Chk2 (Homo sapiens) (UniProt O96017); details: Compound concentration 1000.0 nM
[32] = target: Protein-tyrosine kinase 6 (Homo sapiens) (UniProt Q13882); details: Compound concentration 1000.0 nM
[33] = target: Serine/threonine-protein kinase MRCK beta (Homo sapiens) (UniProt Q9Y5S2); details: Compound concentration 1000.0 nM
Sequence of Serine/threonine-protein kinase MRCK beta (Homo sapiens) (Q9Y5S2 whole entry): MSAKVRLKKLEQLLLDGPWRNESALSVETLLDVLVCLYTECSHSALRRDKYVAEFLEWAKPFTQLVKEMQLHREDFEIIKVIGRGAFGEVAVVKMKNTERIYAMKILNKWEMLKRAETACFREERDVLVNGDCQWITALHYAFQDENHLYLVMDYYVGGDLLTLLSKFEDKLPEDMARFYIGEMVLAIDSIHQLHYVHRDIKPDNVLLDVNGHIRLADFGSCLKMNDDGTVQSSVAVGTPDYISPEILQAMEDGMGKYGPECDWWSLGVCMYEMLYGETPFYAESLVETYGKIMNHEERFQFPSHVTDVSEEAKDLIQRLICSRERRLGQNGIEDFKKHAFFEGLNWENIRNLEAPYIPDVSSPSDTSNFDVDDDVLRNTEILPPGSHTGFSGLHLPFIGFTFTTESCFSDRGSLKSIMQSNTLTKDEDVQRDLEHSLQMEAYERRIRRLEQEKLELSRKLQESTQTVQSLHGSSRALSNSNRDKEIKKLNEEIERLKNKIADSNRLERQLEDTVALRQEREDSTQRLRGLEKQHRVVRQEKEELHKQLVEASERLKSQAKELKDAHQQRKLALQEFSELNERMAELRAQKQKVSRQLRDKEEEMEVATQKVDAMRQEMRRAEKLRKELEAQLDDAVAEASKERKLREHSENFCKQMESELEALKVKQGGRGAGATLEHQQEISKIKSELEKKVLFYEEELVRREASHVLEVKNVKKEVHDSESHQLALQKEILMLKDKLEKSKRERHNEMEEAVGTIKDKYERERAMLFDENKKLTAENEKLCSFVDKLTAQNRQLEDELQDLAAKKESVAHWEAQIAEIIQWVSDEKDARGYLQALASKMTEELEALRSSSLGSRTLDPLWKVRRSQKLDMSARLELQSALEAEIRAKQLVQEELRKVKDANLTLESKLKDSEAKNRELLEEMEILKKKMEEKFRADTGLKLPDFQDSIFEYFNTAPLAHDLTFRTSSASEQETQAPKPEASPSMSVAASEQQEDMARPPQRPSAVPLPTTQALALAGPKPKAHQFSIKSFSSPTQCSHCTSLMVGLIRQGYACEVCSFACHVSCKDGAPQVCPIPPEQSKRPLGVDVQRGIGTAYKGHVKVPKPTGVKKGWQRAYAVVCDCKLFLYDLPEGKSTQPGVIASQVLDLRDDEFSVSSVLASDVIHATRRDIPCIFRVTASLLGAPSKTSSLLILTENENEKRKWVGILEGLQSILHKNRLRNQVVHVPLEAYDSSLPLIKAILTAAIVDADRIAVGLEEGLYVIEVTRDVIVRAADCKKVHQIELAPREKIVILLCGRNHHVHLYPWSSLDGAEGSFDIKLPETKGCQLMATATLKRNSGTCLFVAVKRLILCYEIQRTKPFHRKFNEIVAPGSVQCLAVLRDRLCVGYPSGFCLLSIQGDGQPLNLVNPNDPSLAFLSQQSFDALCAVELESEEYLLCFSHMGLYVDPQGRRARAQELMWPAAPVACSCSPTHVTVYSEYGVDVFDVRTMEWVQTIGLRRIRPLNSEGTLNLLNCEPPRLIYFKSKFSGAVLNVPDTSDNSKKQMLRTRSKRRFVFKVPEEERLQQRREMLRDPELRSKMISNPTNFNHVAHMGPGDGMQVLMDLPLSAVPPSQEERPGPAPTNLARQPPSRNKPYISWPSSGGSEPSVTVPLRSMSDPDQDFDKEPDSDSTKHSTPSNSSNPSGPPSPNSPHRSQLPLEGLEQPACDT

[34] = target: Tyrosine-protein kinase Mer (Homo sapiens) (UniProt Q12866); details: Compound concentration 1000.0 nM
[35] = target: Membrane-associated tyrosine- and threonine-specific cdc2-inhibitory kinase (Homo sapiens) (UniProt Q99640); details: Compound concentration 1000.0 nM
[36] = target: Serine/threonine-protein kinase MRCK alpha (Homo sapiens) (UniProt Q5VT25); details: Compound concentration 1000.0 nM
[37] = target: Serine/threonine-protein kinase Sgk2 (Homo sapiens) (UniProt Q9HBY8); details: Compound concentration 1000.0 nM
[38] = target: D(3) dopamine receptor (Homo sapiens) (UniProt P35462); details: Compound concentration 10.0 uM
[39] = target: Serine/threonine-protein kinase OSR1 (Homo sapiens) (UniProt O95747); details: Compound concentration 1000.0 nM
[40] = target: Casein kinase I isoform gamma-2 (Homo sapiens) (UniProt P78368); details: Compound concentration 1000.0 nM
Sequence of Casein kinase I isoform gamma-2 (Homo sapiens) (P78368 whole entry, looked up, canonical isoform): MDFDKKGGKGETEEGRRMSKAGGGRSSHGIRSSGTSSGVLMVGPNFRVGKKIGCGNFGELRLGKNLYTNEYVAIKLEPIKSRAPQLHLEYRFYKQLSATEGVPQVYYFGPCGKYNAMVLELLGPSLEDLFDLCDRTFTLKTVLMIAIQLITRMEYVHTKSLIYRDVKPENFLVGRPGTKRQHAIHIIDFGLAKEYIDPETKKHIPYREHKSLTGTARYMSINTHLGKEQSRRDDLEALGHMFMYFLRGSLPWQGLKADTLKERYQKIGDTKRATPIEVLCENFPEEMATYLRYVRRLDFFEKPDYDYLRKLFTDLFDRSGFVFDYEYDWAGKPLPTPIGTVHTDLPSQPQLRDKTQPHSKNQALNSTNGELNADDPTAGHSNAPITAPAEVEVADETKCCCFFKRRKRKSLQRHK

[41] = target: Tyrosine-protein kinase Fgr (Homo sapiens) (UniProt P09769); details: Compound concentration 1000.0 nM
[42] = target: Phosphatidylinositol 4,5-bisphosphate 3-kinase catalytic subunit delta isoform (Homo sapiens) (UniProt O00329); details: Compound concentration 1000.0 nM
[43] = target: Ephrin type-B receptor 4 (Homo sapiens) (UniProt P54760); details: Compound concentration 1000.0 nM
[44] = target: Tyrosine-protein kinase CSK (Homo sapiens) (UniProt P41240); details: Compound concentration 1000.0 nM
[45] = target: Serine/threonine-protein kinase TBK1 (Homo sapiens) (UniProt Q9UHD2); details: Compound concentration 1000.0 nM

Q: How did the residual activity [1] turn out when COc1ccc2c(O[C@@H]3C[C@H]4C(=O)N[C@]5(C(=O)O)CC5/C=C\CCCCC[C@H](NC(=O)OC5CCCC5)C(=O)N4C3)cc(-c3csc(NC(=O)C(C)C)n3)nc2c1C (stereo not given in full) [BI 1230] was run?
A: The residual activity was 76%.

Q: And the inhibition [2]?
A: The inhibition was 56.8%.

Q: What about the residual activity [3] of the same molecule?
A: Its residual activity is 99%.

Q: What about the residual activity [4] of the same molecule?
A: The residual activity was 79%.

Q: And the residual activity [5]?
A: Its residual activity is 68%.

Q: And the residual activity [6]?
A: The residual activity was 83%.

Q: And the residual activity [7]?
A: Its residual activity is 88%.

Q: And the residual activity [8]?
A: The residual activity was 100%.

Q: What about the residual activity [9] of the same molecule?
A: The residual activity was 100%.

Q: And the residual activity [10]?
A: The residual activity was 69%.

Q: What about the residual activity [11] of the same molecule?
A: Its residual activity is 96%.

Q: And the residual activity [12]?
A: Its residual activity is 100%.

Q: And the residual activity [13]?
A: The residual activity was 100%.

Q: And the residual activity [14]?
A: Its residual activity is 77%.

Q: And the residual activity [15]?
A: Its residual activity is 77%.

Q: What about the residual activity [16] of the same molecule?
A: The residual activity was 88%.

Q: What about the residual activity [17] of the same molecule?
A: Its residual activity is 93%.

Q: What about the residual activity [18] of the same molecule?
A: Its residual activity is 96%.

Q: And the residual activity [19]?
A: The residual activity was 87%.

Q: And the residual activity [20]?
A: The residual activity was 87%.

Q: What about the residual activity [21] of the same molecule?
A: The residual activity was 85%.

Q: What about the residual activity [22] of the same molecule?
A: Its residual activity is 100%.

Q: What about the residual activity [23] of the same molecule?
A: Its residual activity is 100%.

Q: And the residual activity [24]?
A: Its residual activity is 78%.

Q: And the residual activity [25]?
A: The residual activity was 88%.

Q: And the residual activity [26]?
A: The residual activity was 88%.

Q: What about the residual activity [27] of the same molecule?
A: Its residual activity is 98%.

Q: And the residual activity [28]?
A: The residual activity was 100%.

Q: And the residual activity [29]?
A: The residual activity was 89%.

Q: What about the residual activity [30] of the same molecule?
A: Its residual activity is 93%.

Q: And the residual activity [31]?
A: The residual activity was 94%.

Q: What about the residual activity [32] of the same molecule?
A: Its residual activity is 97%.

Q: What about the residual activity [33] of the same molecule?
A: The residual activity was 96%.

Q: What about the residual activity [34] of the same molecule?
A: The residual activity was 70%.

Q: And the residual activity [35]?
A: Its residual activity is 100%.

Q: And the residual activity [36]?
A: The residual activity was 100%.

Q: And the residual activity [37]?
A: The residual activity was 87%.

Q: What about the inhibition [38] of the same molecule?
A: Its inhibition is -9.2%.

Q: What about the residual activity [39] of the same molecule?
A: Its residual activity is 82%.

Q: What about the residual activity [40] of the same molecule?
A: Its residual activity is 90%.

Q: And the residual activity [41]?
A: The residual activity was 100%.

Q: And the residual activity [42]?
A: Its residual activity is 100%.

Q: And the residual activity [43]?
A: Its residual activity is 100%.

Q: And the residual activity [44]?
A: Its residual activity is 100%.

Q: What about the residual activity [45] of the same molecule?
A: The residual activity was 86%.

Q: Which results are given for O=C(N[C@H]1CCCCC/C=C\C2C[C@@]2(C(=O)O)NC(=O)[C@@H]2C[C@@H](Oc3ccncc3)CN2C1=O)OC1CCCC1 (stereo not given in full) [BI 1675]?
A: residual activity [1]: 97%; inhibition [2]: -4.47%; residual activity [3]: 100%; residual activity [4]: 79%; residual activity [5]: 38%; residual activity [6]: 100%; residual activity [7]: 99%; residual activity [8]: 93%; residual activity [9]: 100%; residual activity [10]: 93%; residual activity [11]: 79%; residual activity [12]: 100%; residual activity [13]: 67%; residual activity [14]: 93%; residual activity [15]: 81%; residual activity [16]: 90%; residual activity [17]: 91%; residual activity [18]: 100%; residual activity [19]: 100%; residual activity [20]: 100%; residual activity [21]: 100%; residual activity [22]: 100%; residual activity [23]: 81%; residual activity [24]: 89%; residual activity [25]: 100%; residual activity [26]: 93%; residual activity [27]: 96%; residual activity [28]: 100%; residual activity [29]: 100%; residual activity [30]: 100%; residual activity [31]: 100%; residual activity [32]: 100%; residual activity [33]: 100%; residual activity [34]: 64%; residual activity [35]: 97%; residual activity [36]: 87%; residual activity [37]: 100%; inhibition [38]: 12.7%; residual activity [39]: 75%; residual activity [40]: 63%; residual activity [41]: 100%; residual activity [42]: 92%; residual activity [43]: 100%; residual activity [44]: 96%; residual activity [45]: 100%
